# From patent US20200131669A1, “CYCLIC PEPTIDE COMPOUND HAVING HIGH MEMBRANE PERMEABILITY, AND LIBRARY CONTAINING SAME” (Chugai Seiyaku Kabushiki Kaisha, priority 2017, published 2020)
# Starred links: 1 amine or outer side, 2 acyl side, 3 side chain; linkers in the order of their positions; H or OH if unused. Positions of bridges follow the written chain, without caps; N, C: chain ends. Non-standard residues stand in square brackets, D forms with d. Residues, ends and D or L forms follow the SMILES beside them. *: point of attachment. Phe(4-CF3) = N[C@@H](Cc1ccc(C(F)(F)F)cc1)C(=O)O; Tyr(3-F) = N[C@@H](Cc1ccc(O)c(F)c1)C(=O)O; NMeF = CN[C@@H](Cc1ccccc1)C(=O)O; NMeGABA = CN(CCCC(=O)[*:2])[*:1]; NMeI = CC[C@H](C)[C@H](NC)C(=O)O; NMeL = CN[C@@H](CC(C)C)C(=O)O; NMeV = CN[C@H](C(=O)O)C(C)C; NMeA = CN[C@@H](C)C(=O)O; Piperidide = C1CCN(*)CC1; dNMeA = CN[C@H](C)C(=O)O; Sar = CNCC(=O)O; tBu = CC(C)(C)*
# Test: Caco-2 membrane permeability, improved method as used in the following Examples (96-well, 20 to 24 h preincubation)
# Assay type: in vitro ADME
# Details: Caco-2, Caco-2 (cm/sec)
# How it was run: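 Papp (cm/sec) was derived from LC/MS of basal samples collected 180 min after apical dosing in FaSSIF/HBSS pH 6.0 with 1% DMSO, against a basal HBSS pH 7.4 receiver containing 4% BSA. Three-week Caco-2 cultures were first preincubated with compound in DMEM+FaSSIF at 37 °C for 20–24 h.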
row,Structure (SMILES),Papp A→B [×10⁻⁶ cm/s]
1,CC(C)C[C@H]1C(=O)N[C@@H](COC(C)(C)C)C(=O)N(C)[C@@H](C(C)C)C(=O)N(C)[C@@H](C)C(=O)N[C@H](C(=O)N2CCCCC2)CC(=O)N[C@H](C)C(=O)N(C)[C@@H](Cc2ccccc2)C(=O)N[C@@H](Cc2ccc(C(F)(F)F)cc2)C(=O)N(C)[C@@H](CC(C)C)C(=O)N[C@@H]([C@@H](C)O)C(=O)N(C)CC(=O)N1C [pd130] ([dA][NMeF][Phe(4-CF3)][NMeL]T[Sar][NMeL]S(tBu)[NMeV][NMeA]D-Piperidide; lactam N-11),1.1
2,CC[C@H](C)[C@H]1C(=O)N[C@@H]([C@@H](C)O)C(=O)N(C)CC(=O)N(C)[C@@H](C)C(=O)N[C@H](C(=O)N2CCCCC2)CC(=O)N(C)[C@@H](C)C(=O)N[C@@H](Cc2ccc(C(F)(F)F)cc2)C(=O)N(C)[C@@H](CC(C)C)C(=O)N(C)[C@@H](Cc2ccccc2)C(=O)N[C@@H](C)C(=O)N(C)[C@@H](CC(C)C)C(=O)N1C [pd131] ([NMeA][Phe(4-CF3)][NMeL][NMeF]A[NMeL][NMeI]T[Sar][NMeA]D-Piperidide; lactam N-11),1.1

# Same assay, conditions: human, Caco-2, Caco-2 (cm/sec)
row,Structure (SMILES),Papp A→B at 180 min [×10⁻⁶ cm/s]
1,CC(C)C[C@H]1C(=O)N[C@H](C(=O)N2CCCCC2)CC(=O)N(C)CCCC(=O)N(C)[C@@H](CC(C)C)C(=O)N[C@@H](Cc2ccc(O)c(F)c2)C(=O)N(C)[C@@H](CC(C)C)C(=O)N(C)[C@@H](Cc2ccccc2)C(=O)N[C@@H](COC(C)(C)C)C(=O)N(C)[C@@H](CC(C)C)C(=O)N[C@@H]([C@@H](C)O)C(=O)N(C)CC(=O)N1C [pd114] ([NMeGABA][NMeL][Tyr(3-F)][NMeL][NMeF]S(tBu)[NMeL]T[Sar][NMeL]D-Piperidide; lactam N-11),0.17
2,CC[C@H](C)[C@H]1C(=O)N[C@@H](Cc2ccc(O)cc2)C(=O)N(C)CC(=O)N(C)[C@@H](CC(C)C)C(=O)N[C@H](C(=O)N2CCCCC2)CC(=O)N(C)[C@@H](C)C(=O)N[C@@H](CC(C)C)C(=O)N(C)[C@@H](C)C(=O)N(C)[C@@H](Cc2ccccc2)C(=O)N[C@@H](C(C)C)C(=O)N(C)[C@@H](C)C(=O)N1C [pd116] ([NMeA]L[NMeA][NMeF]V[NMeA][NMeI]Y[Sar][NMeL]D-Piperidide; lactam N-11),0.14
3,CC[C@H](C)[C@@H]1NC(=O)[C@H](CC(C)C)N(C)C(=O)[C@@H](C)NC(=O)C[C@@H](C(=O)N2CCCCC2)NC(=O)[C@H](C(C)C)N(C)C(=O)[C@H](Cc2ccccc2)N(C)C(=O)[C@H](COC(C)(C)C)NC(=O)[C@H](CC(C)C)N(C)C(=O)CN(C)C(=O)[C@H](Cc2ccc(O)cc2)NC(=O)[C@H](C)N(C)C1=O [pd117] ([dA][NMeL]I[NMeA]Y[Sar][NMeL]S(tBu)[NMeF][NMeV]D-Piperidide; lactam N-11),0.56
4,CC(C)C[C@H]1NC(=O)C[C@@H](C(=O)N2CCCCC2)NC(=O)[C@H](C)N(C)C(=O)[C@H](CC(C)C)N(C)C(=O)[C@H](COC(C)(C)C)NC(=O)[C@H](CC(C)C)N(C)C(=O)CN(C)C(=O)[C@H]([C@@H](C)O)NC(=O)[C@H](CC(C)C)N(C)C(=O)[C@H](Cc2ccc(O)c(F)c2)NC(=O)[C@H](Cc2ccccc2)N(C)C1=O [pd118] ([dL][NMeF][Tyr(3-F)][NMeL]T[Sar][NMeL]S(tBu)[NMeL][NMeA]D-Piperidide; lactam N-11),0.2
5,CC[C@H](C)[C@@H]1NC(=O)[C@H](CC(C)C)N(C)C(=O)CCCN(C)C(=O)C[C@@H](C(=O)N2CCCCC2)NC(=O)[C@H](CC(C)C)N(C)C(=O)[C@H](C)N(C)C(=O)[C@H]([C@@H](C)O)NC(=O)[C@H](CC(C)C)N(C)C(=O)[C@H](Cc2ccc(O)c(F)c2)NC(=O)[C@H](CC(C)C)N(C)C(=O)[C@H](Cc2ccccc2)N(C)C1=O [pd119] ([NMeGABA][NMeL]I[NMeF][NMeL][Tyr(3-F)][NMeL]T[NMeA][NMeL]D-Piperidide; lactam N-11),0.16
6,CC(C)C[C@@H]1NC(=O)[C@H](C)N(C)C(=O)C[C@@H](C(=O)N2CCCCC2)NC(=O)[C@H](CC(C)C)N(C)C(=O)CN(C)C(=O)[C@H](Cc2ccc(O)c(F)c2)NC(=O)[C@H](CC(C)C)N(C)C(=O)[C@H](C)N(C)C(=O)[C@H](C)NC(=O)[C@H](Cc2ccccc2)N(C)C(=O)[C@H](CC(C)C)N(C)C1=O [pd120] ([NMeA]L[NMeL][NMeF]A[NMeA][NMeL][Tyr(3-F)][Sar][NMeL]D-Piperidide; lactam N-11),0.23
7,CC(C)C[C@H]1C(=O)N[C@@H](COC(C)(C)C)C(=O)N(C)[C@@H](Cc2ccccc2)C(=O)N(C)[C@@H](C(C)C)C(=O)N[C@H](C(=O)N2CCCCC2)CC(=O)N[C@H](C(C)C)C(=O)N(C)[C@@H](C)C(=O)N[C@@H](C(C)C)C(=O)N(C)[C@@H](CC(C)C)C(=O)N[C@@H](Cc2ccc(O)cc2)C(=O)N(C)CC(=O)N1C [pd121] ([dV][NMeA]V[NMeL]Y[Sar][NMeL]S(tBu)[NMeF][NMeV]D-Piperidide; lactam N-11),1
8,CC(C)C[C@H]1C(=O)N[C@H](C(=O)N2CCCCC2)CC(=O)N(C)[C@@H](C)C(=O)N[C@@H](Cc2ccc(O)c(F)c2)C(=O)N(C)[C@@H](CC(C)C)C(=O)N(C)[C@@H](CC(C)C)C(=O)N[C@@H](C(C)C)C(=O)N(C)[C@@H](Cc2ccccc2)C(=O)N(C)[C@@H](CC(C)C)C(=O)N[C@@H]([C@@H](C)O)C(=O)N(C)CC(=O)N1C [pd122] ([NMeA][Tyr(3-F)][NMeL][NMeL]V[NMeF][NMeL]T[Sar][NMeL]D-Piperidide; lactam N-11),0.46
9,CC[C@H](C)[C@@H]1NC(=O)[C@H](CC(C)C)N(C)C(=O)[C@@H](C)NC(=O)C[C@@H](C(=O)N2CCCCC2)NC(=O)[C@H](C)N(C)C(=O)[C@H](Cc2ccccc2)N(C)C(=O)[C@H](COC(C)(C)C)NC(=O)[C@H](CC(C)C)N(C)C(=O)CN(C)C(=O)[C@H](Cc2ccc(O)c(F)c2)NC(=O)[C@H](CC(C)C)N(C)C1=O [pd124] ([dA][NMeL]I[NMeL][Tyr(3-F)][Sar][NMeL]S(tBu)[NMeF][NMeA]D-Piperidide; lactam N-11),0.32
10,CC[C@H](C)[C@@H]1NC(=O)[C@H](C(C)C)N(C)C(=O)CCCN(C)C(=O)C[C@@H](C(=O)N2CCCCC2)NC(=O)[C@H](CC(C)C)N(C)C(=O)[C@H](C)N(C)C(=O)[C@H](Cc2ccc(O)cc2)NC(=O)[C@H](CC(C)C)N(C)C(=O)[C@H](COC(C)(C)C)NC(=O)[C@H](Cc2ccccc2)N(C)C(=O)[C@H](CC(C)C)N(C)C1=O [pd125] ([NMeGABA][NMeV]I[NMeL][NMeF]S(tBu)[NMeL]Y[NMeA][NMeL]D-Piperidide; lactam N-11),0.45
11,CC[C@H](C)[C@H]1C(=O)N[C@@H](Cc2ccc(O)cc2)C(=O)N(C)CC(=O)N(C)[C@@H](CC(C)C)C(=O)N[C@H](C(=O)N2CCCCC2)CC(=O)N(C)[C@@H](C)C(=O)N[C@@H](C(C)C)C(=O)N(C)[C@@H](CC(C)C)C(=O)N(C)[C@@H](CC(C)C)C(=O)N[C@@H](C)C(=O)N(C)[C@@H](Cc2ccccc2)C(=O)N1C [pd126] ([NMeA]V[NMeL][NMeL]A[NMeF][NMeI]Y[Sar][NMeL]D-Piperidide; lactam N-11),0.42
12,CC(C)C[C@@H]1NC(=O)[C@H](Cc2ccccc2)N(C)C(=O)[C@@H](C(C)C)NC(=O)C[C@@H](C(=O)N2CCCCC2)NC(=O)[C@H](C)N(C)C(=O)[C@H](CC(C)C)N(C)C(=O)[C@H](COC(C)(C)C)NC(=O)[C@H](CC(C)C)N(C)C(=O)CN(C)C(=O)[C@H](Cc2ccc(O)cc2)NC(=O)[C@H](CC(C)C)N(C)C1=O [pd127] ([dV][NMeF]L[NMeL]Y[Sar][NMeL]S(tBu)[NMeL][NMeA]D-Piperidide; lactam N-11),0.13
13,CC(C)C[C@@H]1NC(=O)[C@H](Cc2ccccc2)N(C)C(=O)[C@@H](C(C)C)NC(=O)C[C@@H](C(=O)N2CCCCC2)NC(=O)[C@H](CC(C)C)N(C)C(=O)[C@H](CC(C)C)N(C)C(=O)[C@H](Cc2ccc(O)c(F)c2)NC(=O)[C@H](CC(C)C)N(C)C(=O)CN(C)C(=O)[C@H]([C@@H](C)O)NC(=O)[C@H](CC(C)C)N(C)C1=O [pd128] ([dV][NMeF]L[NMeL]T[Sar][NMeL][Tyr(3-F)][NMeL][NMeL]D-Piperidide; lactam N-11),0.17
14,CC[C@H](C)[C@@H]1NC(=O)[C@H](CC(C)C)N(C)C(=O)CCCN(C)C(=O)C[C@@H](C(=O)N2CCCCC2)NC(=O)[C@H](CC(C)C)N(C)C(=O)[C@H](C)N(C)C(=O)[C@H](Cc2ccc(O)cc2)NC(=O)[C@H](CC(C)C)N(C)C(=O)[C@H](COC(C)(C)C)NC(=O)[C@H](CC(C)C)N(C)C(=O)[C@H](Cc2ccccc2)N(C)C1=O [pd129] ([NMeGABA][NMeL]I[NMeF][NMeL]S(tBu)[NMeL]Y[NMeA][NMeL]D-Piperidide; lactam N-11),0.16
15,CC[C@H](C)[C@@H]1NC(=O)[C@H](C(C)C)N(C)C(=O)[C@H](C)N(C)C(=O)[C@H]([C@@H](C)O)NC(=O)[C@H](CC(C)C)N(C)C(=O)[C@H](Cc2ccc(C(F)(F)F)cc2)NC(=O)[C@H](CC(C)C)N(C)C(=O)[C@@H](C)N(C)C(=O)C[C@@H](C(=O)N2CCCCC2)NC(=O)[C@H](CC(C)C)NC(=O)[C@@H]2CCCN2C1=O [pd133] ([dNMeA][NMeL][Phe(4-CF3)][NMeL]T[NMeA][NMeV]IPLD-Piperidide; lactam N-11),2.3
16,CC(C)C[C@H]1C(=O)N[C@@H](COC(C)(C)C)C(=O)N(C)[C@@H](Cc2ccccc2)C(=O)N(C)[C@@H](C)C(=O)N[C@H](C(=O)N2CCCCC2)CC(=O)N[C@H](C(C)C)C(=O)N(C)[C@@H](C(C)C)C(=O)N[C@@H](Cc2ccc(C(F)(F)F)cc2)C(=O)N(C)[C@@H](CC(C)C)C(=O)N[C@@H]([C@@H](C)O)C(=O)N(C)CC(=O)N1C [pd134] ([dV][NMeV][Phe(4-CF3)][NMeL]T[Sar][NMeL]S(tBu)[NMeF][NMeA]D-Piperidide; lactam N-11),2.6
